Measured values reported in patent publication US20060116368A1, “4-Piperidinecarboxamide modulators of vanilloid VR1 receptor” (priority 2004, published 2006).

Target: T1, Human Vanilloid Receptor 1 (Homo sapiens, UniProt Q8NER1)
T1 construct: expressed in transfected cells; host or cells: HEK 293
Experiment: Human VR1 functional assay using FLIPR, Protocol 2
Type: cell-based
Details: for h % I (1 uM): inhibition of capsaicin (EC80)-induced calcium response; for h % I (1 uM) / % E80 Capsaicin (1.2 uM): HEK 293 stably transfected hVR1; for % E80 Capsaicin (1.2 uM): test compound-induced calcium response (agonist mode); for IC50: decreased capsaicin (EC80)-induced calcium response, HEK 293 stably transfected hVR1, read-out: h IC50
Procedure: The functional activity of the test compounds was determined by measuring changes in intracellular calcium concentration using FLIPR™ Calcium-3 Assay Kit and FLIPR™ technology.
HEK 293 cells stably transfected with Human Vanilloid Receptor 1 were maintained at 37° C. and 5% CO2 in: Dulbecco's Modification of Eagle's Medium (4.5 g/L glucose, L-glutamine, sodium pyruvate), 10% FBS, 1× Penicillin-Streptomycin, 400 ug/mL G418 Sulfate. Approximately 24 hours prior to assay, 5,000 cells/well were plated onto a 384-well black clear bottom poly-D-lysine-coated assay plate with a well volume of 25 μL using Titertek Multidrop.
On the day of the assay, the medium was dumped and 50 μL of dye (bulk kit vials diluted with 200 mL buffer) was loaded using Multidrop. Plates were incubated with dye at 37° C. for 30 minutes followed by 30 minutes incubation at room temperature. Then the plates were assayed by FLIPR™ with 2 additions: 12.5 μL test compound with 5 minutes data acquisition followed by 12.5 μL capsaicin at the EC80 concentration.
The EC50 values of test compounds were calculated based on a test compound-induced calcium response at the 5-minute time point. The IC50 values of compounds were calculated based on a decreased capsaicin-induced calcium response in the presence of test compound.

T1 sequence (Q8NER1 whole entry): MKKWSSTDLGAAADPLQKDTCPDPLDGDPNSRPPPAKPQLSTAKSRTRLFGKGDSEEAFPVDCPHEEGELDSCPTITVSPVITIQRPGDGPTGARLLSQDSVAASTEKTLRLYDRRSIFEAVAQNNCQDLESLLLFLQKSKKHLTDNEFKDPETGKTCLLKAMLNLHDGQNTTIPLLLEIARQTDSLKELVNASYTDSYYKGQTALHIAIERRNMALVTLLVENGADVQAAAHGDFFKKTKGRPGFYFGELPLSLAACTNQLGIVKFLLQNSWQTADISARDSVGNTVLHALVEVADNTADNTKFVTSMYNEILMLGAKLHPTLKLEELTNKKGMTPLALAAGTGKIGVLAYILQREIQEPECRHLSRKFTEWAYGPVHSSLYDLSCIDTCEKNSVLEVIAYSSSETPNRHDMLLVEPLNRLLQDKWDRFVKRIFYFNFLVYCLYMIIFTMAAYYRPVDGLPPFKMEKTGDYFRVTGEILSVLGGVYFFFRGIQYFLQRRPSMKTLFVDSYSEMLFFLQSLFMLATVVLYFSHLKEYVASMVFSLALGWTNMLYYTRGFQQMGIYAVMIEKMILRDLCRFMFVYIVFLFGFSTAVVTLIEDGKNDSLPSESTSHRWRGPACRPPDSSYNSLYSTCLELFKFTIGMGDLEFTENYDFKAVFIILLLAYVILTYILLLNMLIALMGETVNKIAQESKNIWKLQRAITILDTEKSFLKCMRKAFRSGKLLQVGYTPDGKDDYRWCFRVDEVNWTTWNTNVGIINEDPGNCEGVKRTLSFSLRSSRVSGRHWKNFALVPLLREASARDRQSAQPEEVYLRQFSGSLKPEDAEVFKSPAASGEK

| SMILES | h % I (1 uM) [%] | % E80 Capsaicin (1.2 uM) [%] | IC50 [nM] |
| --- | --- | --- | --- |
| O=C1COc2cccc(NC(=O)C3CCN(c4cc(F)c(F)c(F)c4)CC3)c2N1 [Example 169, 1-(3,4,5-Trifluoro-phenyl)-piperidine-4-carboxylic acid (3-oxo-3,4-dihydro-2H-benzo[1,4]oxazin-5-yl)-amide] | 9 |  |  |
| CCOC(=O)C1Oc2ccc(NC(=O)C3CCN(c4cc(F)c(F)c(F)c4)CC3)cc2NC1=O (centres unmarked) [Example 177, 3-Oxo-6-{[1-(3,4,5-trifluoro-phenyl)-piperidine-4-carbonyl]-amino}-3,4-dihydro-2H-benzo[1,4]oxazine-2-carboxylic acid ethyl ester] |  | 13 |  |
| CN1C(=O)COc2ccc(NC(=O)C3CCN(c4cc(F)c(F)c(F)c4)CC3)cc21 [Example 172, 1-(3,4,5-Trifluoro-phenyl)-piperidine-4-carboxylic acid (4-methyl-3-oxo-3,4-dihydro-2H-benzo[1,4]oxazin-6-yl)-amide] |  | 39 |  |
| O=C(Nc1ccc2c(c1)NC(=O)C(CCO)O2)C1CCN(c2cc(F)c(F)c(F)c2)CC1 (centres unmarked) [Example 174, 1-(3,4,5-Trifluoro-phenyl)-piperidine-4-carboxylic acid [2-(2-hydroxy-ethyl)-3-oxo-3,4-dihydro-2H-benzo[1,4]oxazin-6-yl]-amide] | 99 |  | 4.8 |
| O=C1CSc2ccc(NC(=O)C3CCN(c4cc(F)c(F)c(F)c4)CC3)cc2N1 [Example 173, 1-(3,4,5-Trifluoro-phenyl)-piperidine-4-carboxylic acid (3-oxo-3,4-dihydro-2H-benzo[1,4]thiazin-6-yl)-amide] | 37 |  | 1960 |
| COC(=O)CC1Oc2ccc(NC(=O)C3CCN(c4cc(F)c(F)c(F)c4)CC3)cc2NC1=O (centres unmarked) [Example 179, (3-Oxo-6-{[1-(3,4,5-trifluoro-phenyl)-piperidine-4-carbonyl]-amino}-3,4-dihydro-2H-benzo[1,4]oxazin-2-yl)-acetic acid methyl ester] | 54 |  | 890 |
| O=C(Nc1ccc2c(c1)NC(=O)C(C(=O)O)O2)C1CCN(c2cc(F)c(F)c(F)c2)CC1 (centres unmarked) [Example 178, 3-Oxo-6-{[1-(3,4,5-trifluoro-phenyl)-piperidine-4-carbonyl]-amino}-3,4-dihydro-2H-benzo[1,4]oxazine-2-carboxylic acid] |  | 80 |  |
| O=C1COc2cc(NC(=O)C3CCN(c4cc(F)c(F)c(F)c4)CC3)ccc2N1 [Example 170, 1-(3,4,5-Trifluoro-phenyl)-piperidine-4-carboxylic acid (3-oxo-3,4-dihydro-2H-benzo[1,4]oxazin-7-yl)-amide] | 55 |  | 735 |
| O=C(O)CC1Oc2ccc(NC(=O)C3CCN(c4cc(F)c(F)c(F)c4)CC3)cc2NC1=O (centres unmarked) [Example 180, (3-Oxo-6-{[1-(3,4,5-trifluoro-phenyl)-piperidine-4-carbonyl]-amino}-3,4-dihydro-2H-benzo[1,4]oxazin-2-yl)-acetic acid] | 5 |  |  |
| O=C1COc2c(cccc2NC(=O)C2CCN(c3cc(F)c(F)c(F)c3)CC2)N1 [Example 171, 1-(3,4,5-Trifluoro-phenyl)-piperidine-4-carboxylic acid (3-oxo-3,4-dihydro-2H-benzo[1,4]oxazin-8-yl)-amide] |  | 17 |  |
| CCOC(=O)C1(C)Oc2ccc(NC(=O)C3CCN(c4cc(F)c(F)c(F)c4)CC3)cc2NC1=O (centres unmarked) [Example 175, 2-Methyl-3-oxo-6-{[1-(3,4,5-trifluoro-phenyl)-piperidine-4-carbonyl]-amino}-3,4-dihydro-2H-benzo[1,4]oxazine-2-carboxylic acid ethyl ester] | 54 |  | 873 |
| CC1(C(=O)O)Oc2ccc(NC(=O)C3CCN(c4cc(F)c(F)c(F)c4)CC3)cc2NC1=O (centres unmarked) [Example 176, 2-Methyl-3-oxo-6-{[1-(3,4,5-trifluoro-phenyl)-piperidine-4-carbonyl]-amino}-3,4-dihydro-2H-benzo[1,4]oxazine-2-carboxylic acid] |  | 116 |  |
